Laboratory results from patent publication US8895605B2, “Pyrrolidine-substituted flavones as radio-sensitizers for use in the treatment of cancer” (Piramal Enterprises Limited, priority 2009, dated 2014).

Legend:
[1] = test system: Head and Neck carcinoma (FaDu) xenograft; test: In-vivo xenograft study, growth inhibition; conditions: FaDu xenograft in SCID mice
Source text: The assay can be carried out according to the method described in Clinical Cancer Research, 2003, 9, 6052-6061; the disclosure of which is incorporated by reference for the teaching of the assay. The in-vivo studies can be carried out by using Xenograft models in Severe combined immune deficiency (SCID) mice strain-CBySmn.CB17-Prkdc^scid/J, by the method described below. The statistically significant number of mice per group (n=6) is chosen in order to be able to statistically evaluate the study data. Six to eight weeks old SCID mice were used. Head and neck cancer cells are grown in MEM medium containing 10% fetal calf serum in 5% CO2 incubator at 37° C. Cells are pelleted by centrifugation at 1000 rpm for 10 minutes. […] Body weight for all the groups is recorded for the entire period. Tumor size and other signs of toxicity (external) is recorded every day. […] Tumor growth in compound treated animals is calculated as T/C (Treated/Control)×100% and growth inhibition percent (GI %) was [100−T/C %] […] Treatment is continued for 18 days as mentioned in study design. • Tumor weight in milligram is calculated using the formula for a prolate ellipsoid: Tumor weight (mg)=Length (mm)×[Breadth (mm)^2]×0.5 • Treated to control ratio (T/C %) on a given day is calculated using the formula: [formula] […]

FaDu cell line [2] = test: In-vitro clonogenic assay (Compound A alone and with radiation); assay type: cell-based, human; conditions: for Number of colonies 72 h after Compound A treatment / Number of colonies 96 h after Compound A treatment: 1500 cells/plate; for Number of colonies 72 h after Compound A treatment: control 138 colonies; for Number of colonies 96 h after Compound A treatment: control 185 colonies
Protocol: The assay has been carried out according to the method described in Radiotherapy and Oncology, 2004, 71, 213-221; the disclosure of which is incorporated by reference for the teaching of the assay. The Fa-Du cells from exponential phase cultures were harvested by trypsinization, counted and plated at a cell density of 1500 cells/well in six-well plate and four identical groups were made. First group served as control that was untreated. Different wells of the second and third group, 24 h after seeding were irradiated at room temperature at dose of 2, 4, 6, 8 and 10 Gy respectively. The third group was further treated, 24 h after irradiation (i.e. on the third day of the experiment) with IC50 concentration of Compound A. The fourth group was treated on the third day of the experiment with IC50 concentration of Compound A alone. After completion of 72 h and 96 h respectively, the medium was changed for all the wells and the plates incubated for a total period of 12-14 days from the first day of the experiment (i.e. the cell seeding day) to allow sufficient time for the cells to form colonies of at least 50 cells. The medium was aspirated and colonies were fixed with methanol and acetic acid mixture in the proportion of 2:1. The fixation procedure was repeated after rinsing with water. The plates were dried and colonies stained with 0.1% crystal violet for 5 min. The wells were finally rinsed with water and dried. […] FIG. 3 and FIG. 4 show the visual enhancement in the radiation response by 1 μM dose of Compound A, in FaDu cell line (Seeding density: 1500 cells/plate).

FaDu cell line [3] = test: as above; assay type: cell-based, human; conditions: 3500 cells/well, 1 μM Compound A for 48 h and 96 h; colonies could not be counted
[4] = 1 μM Compound A (IC50) alone, no radiation
[5] = 2 Gy radiation, then 1 μM Compound A 24 h after radiation
[6] = 4 Gy radiation, then 1 μM Compound A 24 h after radiation
[7] = 6 Gy radiation, then 1 μM Compound A 24 h after radiation
[8] = 8 Gy radiation, then 1 μM Compound A 24 h after radiation
[9] = 10 Gy radiation, then 1 μM Compound A 24 h after radiation

CN1CC[C@@H](c2c(O)cc(O)c3c(=O)cc(-c4ccccc4Cl)oc23)[C@@H]1CO.Cl [Compound A, (+)-trans-2-(2-Chlorophenyl)-5,7-dihydroxy-8-(2-hydroxymethyl-1-methyl-pyrrolidin-3-yl)-chromen-4-one hydrochloride]
Average % growth inhibition (% GI) with respect to control group ([1]; Only Compound A, 35 mpk i.p. everyday for 18 days): 42%
Average % growth inhibition (% GI) with respect to control group ([1]; Radiation (3 Gy twice weekly, total 15 Gy) + Compound A 35 mpk i.p. everyday for 18 days): 75%
Number of colonies 72 h after Compound A treatment (FaDu cell line [2]; [4]): 38
Number of colonies 96 h after Compound A treatment (FaDu cell line [2]; [4]): 36
Radiation response in clonogenic assay (FaDu cell line [2]; 1 μM Compound A for both 72 h and 96 h, at both 4 and 6 Gy, 1500 cells/well): enhanced the radiation response
Number of colonies 72 h after Compound A treatment (FaDu cell line [2]; [5]): 45
Number of colonies 96 h after Compound A treatment (FaDu cell line [2]; [5]): 40
Number of colonies 72 h after Compound A treatment (FaDu cell line [2]; [6]): 18
Number of colonies 96 h after Compound A treatment (FaDu cell line [2]; [6]): 17
Number of colonies 72 h after Compound A treatment (FaDu cell line [2]; [7]): 7
Number of colonies 96 h after Compound A treatment (FaDu cell line [2]; [7]): 6
Number of colonies 72 h after Compound A treatment (FaDu cell line [2]; [8]): 0
Number of colonies 96 h after Compound A treatment (FaDu cell line [2]; [8]): 2
Number of colonies 72 h after Compound A treatment (FaDu cell line [2]; [9]): 0
Number of colonies 96 h after Compound A treatment (FaDu cell line [2]; [9]): 0
Radiation response in clonogenic assay (visual) (FaDu cell line [3]): visual enhancement in radiation response
